# Source: publication PMC6155315, “Enantiomeric Aβ peptides inhibit the fluid shear stress response of PIEZO1” (Scientific Reports, 2018)
# “And” between values parts separate entries of the source, which are not always exact repeats. Identical values can stand only once. Positions of bridges follow the written chain, without caps; N, C: chain ends. Residues, ends and D or L forms follow the SMILES beside them.
# Tests used:
# hPIEZO1 = molecular target: T1, hPIEZO1 (Homo sapiens, UniProt Q92508); assay: Fluid shear stress assay: shear-induced [Ca2+]i increase (Fluo-4 AM) in hP1-CL cells; format: cell-based; conditions: for Effect on fluid shear [Ca2+]i response: hP1-CL cells; for Shear response of hP1-CL cells after cytoskeletal disruption: concentration not given
# T1 construct: expressed in transfected cells
# T1 sequence (Q92508 whole entry): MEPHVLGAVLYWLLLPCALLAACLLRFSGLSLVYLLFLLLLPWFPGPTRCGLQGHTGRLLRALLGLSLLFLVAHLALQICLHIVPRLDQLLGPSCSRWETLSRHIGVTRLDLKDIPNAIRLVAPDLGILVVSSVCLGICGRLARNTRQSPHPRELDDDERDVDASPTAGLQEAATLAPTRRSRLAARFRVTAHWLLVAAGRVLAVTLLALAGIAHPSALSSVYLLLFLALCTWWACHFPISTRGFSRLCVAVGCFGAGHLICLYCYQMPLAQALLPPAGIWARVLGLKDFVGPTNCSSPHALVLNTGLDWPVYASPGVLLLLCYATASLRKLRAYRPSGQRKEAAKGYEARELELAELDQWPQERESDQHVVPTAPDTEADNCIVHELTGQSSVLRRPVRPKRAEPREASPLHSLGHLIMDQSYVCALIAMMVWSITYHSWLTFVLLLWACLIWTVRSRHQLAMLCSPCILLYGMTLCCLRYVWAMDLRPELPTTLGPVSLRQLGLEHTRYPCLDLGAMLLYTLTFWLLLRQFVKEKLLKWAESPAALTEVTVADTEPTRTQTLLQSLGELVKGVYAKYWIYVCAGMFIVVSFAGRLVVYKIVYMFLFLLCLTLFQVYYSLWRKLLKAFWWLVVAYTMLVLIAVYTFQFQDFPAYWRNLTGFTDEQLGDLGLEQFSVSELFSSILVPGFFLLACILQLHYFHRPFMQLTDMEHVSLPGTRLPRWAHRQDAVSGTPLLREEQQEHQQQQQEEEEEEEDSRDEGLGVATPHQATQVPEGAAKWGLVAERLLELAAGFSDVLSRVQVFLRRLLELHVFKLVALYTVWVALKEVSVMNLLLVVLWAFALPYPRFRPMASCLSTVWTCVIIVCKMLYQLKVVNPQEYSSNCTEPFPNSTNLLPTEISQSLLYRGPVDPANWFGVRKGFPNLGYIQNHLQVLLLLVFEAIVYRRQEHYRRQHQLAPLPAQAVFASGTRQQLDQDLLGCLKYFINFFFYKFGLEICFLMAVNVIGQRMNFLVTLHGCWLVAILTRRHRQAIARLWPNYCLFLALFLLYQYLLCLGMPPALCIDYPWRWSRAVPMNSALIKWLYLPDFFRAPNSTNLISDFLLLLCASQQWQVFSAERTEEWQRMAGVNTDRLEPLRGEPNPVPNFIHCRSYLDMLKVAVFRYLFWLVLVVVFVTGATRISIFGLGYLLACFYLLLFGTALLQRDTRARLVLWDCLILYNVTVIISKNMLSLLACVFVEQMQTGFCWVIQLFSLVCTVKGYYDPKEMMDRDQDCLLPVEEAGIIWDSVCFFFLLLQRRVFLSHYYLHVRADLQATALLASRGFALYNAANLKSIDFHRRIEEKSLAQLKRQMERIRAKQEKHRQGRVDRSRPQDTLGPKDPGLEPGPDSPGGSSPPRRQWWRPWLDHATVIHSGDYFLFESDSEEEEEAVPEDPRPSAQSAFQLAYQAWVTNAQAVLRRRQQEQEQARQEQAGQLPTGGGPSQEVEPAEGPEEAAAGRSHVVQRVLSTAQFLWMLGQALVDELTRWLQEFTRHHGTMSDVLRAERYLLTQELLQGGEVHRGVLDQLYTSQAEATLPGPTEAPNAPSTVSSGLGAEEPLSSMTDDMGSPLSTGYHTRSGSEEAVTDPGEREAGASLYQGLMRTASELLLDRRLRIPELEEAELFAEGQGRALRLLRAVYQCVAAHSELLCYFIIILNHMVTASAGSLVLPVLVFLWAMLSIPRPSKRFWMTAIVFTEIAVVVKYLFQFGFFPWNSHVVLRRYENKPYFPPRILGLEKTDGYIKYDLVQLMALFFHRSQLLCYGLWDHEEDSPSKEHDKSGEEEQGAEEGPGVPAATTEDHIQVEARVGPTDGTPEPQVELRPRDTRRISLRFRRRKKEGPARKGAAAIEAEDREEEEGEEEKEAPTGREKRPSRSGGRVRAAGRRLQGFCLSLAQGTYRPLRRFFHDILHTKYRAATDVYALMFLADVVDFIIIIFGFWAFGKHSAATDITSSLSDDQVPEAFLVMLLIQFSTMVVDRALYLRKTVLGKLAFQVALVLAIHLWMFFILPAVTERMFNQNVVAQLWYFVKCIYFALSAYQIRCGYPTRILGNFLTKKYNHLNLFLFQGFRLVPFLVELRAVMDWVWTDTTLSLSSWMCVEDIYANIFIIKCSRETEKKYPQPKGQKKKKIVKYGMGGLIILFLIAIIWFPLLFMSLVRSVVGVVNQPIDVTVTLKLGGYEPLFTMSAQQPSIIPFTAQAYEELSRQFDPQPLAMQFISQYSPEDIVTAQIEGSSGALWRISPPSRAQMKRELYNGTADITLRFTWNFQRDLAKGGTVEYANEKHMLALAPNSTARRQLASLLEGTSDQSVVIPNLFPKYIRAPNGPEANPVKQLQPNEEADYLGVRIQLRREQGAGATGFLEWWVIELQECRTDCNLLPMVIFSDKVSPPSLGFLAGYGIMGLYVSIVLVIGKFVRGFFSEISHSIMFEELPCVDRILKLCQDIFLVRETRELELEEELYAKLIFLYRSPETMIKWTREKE
# Description: We first created a cell line that expressed a fluorescently tagged version of human PIEZO1 called hPIEZO1-1591-EGFP[5]. […] The cDNA was integrated into the genome of HEK293T cells using a lentivirus vector.
# The microfluidic chambers had glass coverslip bottoms coated with human fibronectin (Invitrogen)[20] and fluid flow guided by PDMS channels. Cells were cultured in the chamber for 3 days, with daily medium changes. On the experimental day, chambers were rinsed with isotonic solution (75 mM NaCl, 5 mM KCl, 2 mM MgCl2, 1 mM CaCl2 and 10 mM HEPES, adjusted to 320 mOsm with mannitol). A stock of Fluo-4 AM was diluted to 5 µM in isotonic saline and incubated with cells for 10–30 min at 37C°. Chambers were then rinsed twice with isotonic solution and incubated for 8 minutes to complete Fluo-4 AM de-esterification. A single fluid shear stress pulse of ~15 dynes/cm^2 for 8–10 ms was applied to the chamber using a high-speed pressure servo (HSPC-1 from ALA). Peptide stocks were kept at 4 °C until used, dissolved to desired concentrations, and immediately added to cells.
# Images of the cellular response to shear stress were captured by an EM-CCD camera (C9100 model, Hamamatsu) at a nominal rate of 1 Hz. To quantify the response, the average intensity in the field of view was background subtracted. Image intensity was adjusted for the rate of bleaching. Each condition was repeated in four separate chambers, and the results averaged. The responses were normalized to the control experiments, and the inhibition was calculated as previously described. The data points were fit by a Hill plot with the equation:1 y=Vmax⁎x^n/(k^n+x^n) where Vmax is the maximum response, n is the Hill coefficient, and k is related to the concentration at half-maximal response.
# PIEZO1 channels = format: cell-based, human; conditions: 5 µM perfused, 50 mV, 60 mmHg pulses; 3 independent experiments
# Description: We examined whether the Aβ could inhibit PIEZO1 currents in the patch. We formed outside/out patches from the hP1 cell line and tested whether 10 µM of Aβ (1-40) or Aβ (1-42) (Peptide Method I) inhibited channel activity, a concentration that blocked the shear response.
# Cell-attached and outside-out patches were used as previously described[47]. All experiments were at room temperature. Pressure or suction steps were applied to the membranes using a high speed pressure clamp (ALA)[48]. The bath solution contained (in mM): 150 KCl, 10 HEPES, 1 MgCl2, 1 CaCl2 at pH 7.4 that clamped the resting membrane potential to zero. The pipette solution was 150 mM KCl at pH 7.4.
# Shown above are typical results from single patches. Left- a positive pressure pulse of 60 mmHg at 50 mV lasting 500 msec was applied to an O/O patch every 2 seconds. After 12 pulses (24 seconds, black trace is the average of 12 pulses), 10 µM of L Aβ(1-40) was applied by perfusion and activity was monitored for 30 seconds (red trace is the average of 15 pulses). […] Center- The effect of Aβ(1-42) on a different patch (identical conditions described above). 12 pressure pulses (black trace) established a baseline response. […] 6 pressure pulses (50 mV, 60 mmHg) were applied to establish the baseline response (black). […]
# hP1-mCherry-CL cells = assay: Actin stress, cpst-FRET actin force probe, in PIEZO1-overexpressing cells; format: cell-based, human; conditions: for Effect on actin stress: 37 °C, 15 cells from 3 experiments
# Source text: Cell movement in the presence of PIEZO1 channels appears to rely on cytoskeletal integrity and plasticity, consistent with the ability of cytoskeletal disrupting agents to prevent PIEZO1 activation (Supplementary Fig. 4A). We examined forces within the cytoskeleton during channel inhibition. By transient transfection, we introduced a genetically encoded optical probe of actin stress (cpst-FRET) into stable hP1-mCherry-CL cells[19] (Fig. 4A), resulting in probe expression into F-actin. […] For each experiments described below, we analyzed and averaged (with SD) 15 cells from 3 different experiments. […] 10 pM of monomerized scrambled Aβ peptide (black squares) also had no effect on actin stress.
# Figure 4 D-GsMTx4 and the enantiomeric Aβ(1-40) peptides inhibit Ca^2+ entry, and increase cytoskeleton stress in hP1-mCherry-CL cells. hP1-mCherry-CL cells were transiently transfected with cDNA encoding the actin force probe to monitor peptide-induced changes to the cell’s cytoskeleton. […] Each data point is the average of 15 cells from 3 different experiments (with SD). A baseline response is established in the first 30 minutes (37 °C and 5% CO2). Addition (green bar) of D-GsMTx4 (5 uM, black squares) or monomeric enantiomeric Aβ(1-40) peptides (10 pM; L, red circles; D, blue triangles) elicits immediate increases in actin stress. […] Bath removal of extracellular Ca^2+ elicits the largest effect (40%, blue triangles). Data points are 15 cells from 3 independent experiments with SD. Panel D summarizes Aβ responses at the 60 min time point (paired t-test). […] Before and after intensities were analyzed by paired t-test ([…]). […]
# (§1) To measure cytoskeletal stress, hP1-mCherry-CL cells were transiently transfected with cDNA encoding the cpst-actin FRET probe. The FRET ratio of […] was measured by simultaneous imaging using an image splitter. Baseline actin stress was measured at 37 °C in isotonic solution for 30 min before peptide addition (see above).
# HEK293T cells = assay: Actin stress, actin force probe, in unmodified control cells; format: cell-based
# Description: (Panel A) HEK293T cells were monitored for 30 min to establish a baseline.
# as §1
# hP1-CL cells = assay: Cell migration (wound healing) assay with peel-off PDMS barrier; format: cell-based, human; conditions: 5 µM
# Description: PIEZO1 channels are involved in neurite extension[16] and other types of cell motility. This led us to test the effects of Aβ peptides on hP1-CL motility in a wound healing assay. Cells were grown to confluence on glass coverslips half-coated with PDMS (Polydimethylsiloxane). The PDMS layer was then peeled off allowing us to accurately measure the collective cell migration rates across the newly exposed glass surface.
# Figure 3 Aβ peptides inhibit migration of hP1-CL cells. Cell migration was measured as cell movement on glass cover slips in polystyrene dishes at 37 °C and 5% CO2. A PDMS barrier to cell growth was created on the cover slip. When cells reached confluency, the barrier was peeled off. Images of the resulting, initially sharp confluent cell boundary were captured at 0.003 Hz over 5 hours. […] Bottom left panel summarizes the mean cell migration distances as a function of time. […] Three independent experiments were averaged (SEM).
# Half of a glass coverslip was coated with catalyzed PDMS (polydimethylsiloxane) (9:1) and allowed to harden. Cells were cultured on the complete coverslip kept in tissue culture dishes. After achieving confluency, the PDMS was peeled from the glass. The location of the front edge of the confluent cells was monitored for 5 hr at 37 C° with 5% CO2-supplemented DMEM media containing 10% bovine serum. […]
molecule,measurement,setting,value
"CC(C)C[C@@H]1NC(=O)[C@@H](NC(=O)CN)CSSC[C@@H]2NC(=O)[C@@H]3CSSC[C@@H](C(=O)N[C@@H](CC(N)=O)C(=O)N[C@@H](Cc4ccccc4)C(=O)N[C@@H](CO)C(=O)N[C@@H](Cc4ccccc4)C(N)=O)NC(=O)[C@H](CC(C)C)NC(=O)[C@H](CCCCN)NC(=O)[C@H](Cc4ccccc4)NC(=O)[C@H](CC(C)C)NC(=O)[C@H](CCCCN)NC(=O)[C@H](CO)NC(=O)[C@H](CSSC[C@H](NC(=O)[C@H](CCCCN)NC(=O)[C@H](Cc4c[nH]c5ccccc45)NC(=O)[C@H](Cc4c[nH]c5ccccc45)NC(=O)[C@H](Cc4ccccc4)NC(=O)[C@H](CCC(=O)O)NC1=O)C(=O)N[C@@H](CC(N)=O)C(=O)N1CCC[C@H]1C(=O)N[C@@H](CC(N)=O)C(=O)N[C@@H](CC(=O)O)C(=O)N[C@@H](CC(=O)O)C(=O)N[C@@H](CCCCN)C(=O)N3)NC(=O)[C@H](CCCCN)NC(=O)[C@H](CC(C)C)NC(=O)[C@H](CCCCN)NC(=O)[C@@H]1CCCN1C(=O)[C@H](CCCNC(=N)N)NC2=O [GsMTx4] (H-GCLEFWWKCNPNDDKCCRPKLKCSKLFKLCNFSF-NH2; disulfide 2-17, 9-23, 16-30; N-terminus and C-terminus assumed)",Effect on fluid shear [Ca2+]i response,"hPIEZO1; 5 µM, Supplementary Fig. 3A",inhibited the shear stress response
same,Reversibility of channel inhibition on washout,"hPIEZO1; shear stress assay, Aβ: within 20 min or with shear stress raised to 25 dynes/cm2",readily restored
same,Hill coefficient,hPIEZO1; titration of shear stress response of hP1-CL cells,1.9 and ~ 1.9
same,Inhibition of PIEZO1 outside/out patch current,PIEZO1 channels,0.67 ± 0.07
COc1cc2c(c(OC)c1OC)-c1ccc(OC)c(=O)cc1[C@@H](NC(C)=O)CC2 [colchicine],Shear response of hP1-CL cells after cytoskeletal disruption,hPIEZO1; Supplementary Fig. 3A,unresponsive to fluid shear
C=C1[C@@H](C)[C@H]2[C@H](Cc3ccccc3)NC(=O)[C@]23[C@H](OC(C)=O)/C=C/[C@@](C)(O)C(=O)[C@@H](C)C/C=C/[C@H]3[C@@H]1O [cytochalasin D],Shear response of hP1-CL cells after cytoskeletal disruption,hPIEZO1; Supplementary Fig. 3A,unresponsive to fluid shear
"AEGDSHVLKEGAYMEIFDVQGHVFGGKIFRVVDLGSHNVA [scrambled L-Aβ(1-40), scrambled Aβ(1-40) peptide purchased from Anaspec, used as control]",Effect on actin stress,hP1-mCherry-CL cells; 10 pM monomeric peptide added after 30 min baseline,no effect
same,Effect on fluid shear [Ca2+]i response,"hPIEZO1; 10 µM peptide, 4 independent experiments",lack of PIEZO1 inhibition
same,Effect on actin stress probe FRET in HEK293T cells,"HEK293T cells; concentration not given, after 30 min baseline",no change
D-GsMTx4,Effect on actin stress,hP1-mCherry-CL cells; 5 µM added after 30 min baseline,increase in actin stress
same,Effect on F-actin in lamellipodia,"hP1-mCherry-CL cells; actin force probe images, Fig. 4E,F, 20 lamellipodia from 4 cells",drop of F-actin tension and its retraction from the lamellipodia
same,Effect on fluid shear [Ca2+]i response,"hPIEZO1; 5 µM, Supplementary Fig. 3A",complete inhibition
same,Effect on actin stress in HEK293T cells,"HEK293T cells; 5 µM, 15 cells from 3 experiments",no effect
same,Effect on hP1-CL cell migration,hP1-CL cells,blocked
same,Slowing of cell migration,"hP1-CL cells; hP1-CL cells, 5 hr, 37 °C, 3 independent experiments",over 10 fold
"HiLyte Aβ(1-42): L-Aβ(1-42) fluorescently labeled at the N-terminus with HiLyte (555), purchased (Anaspec) and monomerized",Effect on shear stress response of the hPIEZO1 cell line,"hPIEZO1; 5 pM and 100 pM monomerized peptide, 4 independent experiments",inhibited
same,Effect on PIEZO1-mediated Ca2+ response to shear stress,"hPIEZO1; 100 pM monomerized peptide, 4 independent experiments",completely inhibited
